# Measurements: patent publication US20250287950A1, “FUNGICIDAL USE” (Adama Makhteshim Ltd., priority 2021, published 2025)
# Legend:
# [1] = test system: Mycosphaerella fijiensis (black sigatoka); experiment: Black sigatoka open field trial in banana, 12 applications, leaves per plant (Example 8b); type: in vivo; details: folpet 850 g a.i./ha
# Text: To test fungicidal control of Mycosphaerella fijiensis, the trial was realized in open field. […] All treatments were applied in a water solution: no mineral oil added.
# Experimental unit consisted of 9 banana plants surrounded by Musa textilis, a variety tolerant to Black Sigatoka, used as border plants. The trial followed a complete randomized design, each treatment was replicated three times.
# Applications were done every 6 days. All treatments had 12 applications.
# The total leaves per plant was evaluated. A high number of leaves at harvest translates to more capability keep the fruit in post-harvest.
# Treatment response to black Sigatoka was evaluated using the Stover scale modified by Gauhl.
# The statistical analysis was done with INFOSTAT program, using a multiple comparison test (LSD) for every parameter.
# [2] = test system: Mycosphaerella fijiensis (black sigatoka); experiment: Black sigatoka open field trial in banana, one application (Example 8a); type: in vivo
# Protocol: To test for fungicidal control of Mycosphaerella fijiensis the trial was realized in open field. […] Each of the above treatments was applied once when plants were showing a disease infection of 5%. The treatments composed of 4 replicates. The experimental design was a randomized complete block design. Data was analyzed using an ANOVA at the 95% confidence interval.
# The level of infection was determined based on the weighted average of infection (PPI) using the Stover scale modified by Gaulh on 5 plants per plot.
smiles,measurement,setting,value
O=C1c2ccccc2C(=O)N1SC(Cl)(Cl)Cl [folpet],number of leaves per plant in comparison to the untreated and the mancozeb standard (in words),[1],higher number of leaves per plant
same,efficacy relative to the mancozeb reference product (in words),[2]; dose of 750 g a.i./ha,comparable to the one provided by the reference product based on mancozeb
same,control of black sigatoka disease (in words),[2]; low doses of 500 and 625 g a.i./ha,good control
